Experimental data published in ChEMBL document CHEMBL1909046, “DrugMatrix in vitro pharmacology data”.

Assays:
[1] = target: 5-hydroxytryptamine receptor 4 (Cavia porcellus, UniProt O70528); assay type: cell membranes, Dunkin-Hartley, Striatum, Membrane; further: in other assays of this panel Not Active means under 50% inhibition at 10 µM
[2] = target: Sigma non-opioid intracellular receptor 1 (Homo sapiens, UniProt Q99720); experiment: DRUGMATRIX: Sigma1 radioligand binding (ligand: [3H] Haloperidol); assay type: cell membranes, Jurkat, Membrane; conditions: jurkat; Not Active = under 50% inhibition at 10 µM
[3] = DRUGMATRIX: Tumor Necrosis Factor (TNF), Non-Selective radioligand binding (ligand: [125I] TNF-alpha); assay type: cell membranes, Membrane; conditions: u-937; Not Active = under 50% inhibition at 10 µM
[4] = target: T1, C-X-C chemokine receptor type 2 (Homo sapiens, UniProt P25025); assay type: cell membranes, Membrane; conditions: cho-k1; further: in other assays of this panel Not Active means under 50% inhibition at 10 µM
T1 sequence (P25025 whole entry): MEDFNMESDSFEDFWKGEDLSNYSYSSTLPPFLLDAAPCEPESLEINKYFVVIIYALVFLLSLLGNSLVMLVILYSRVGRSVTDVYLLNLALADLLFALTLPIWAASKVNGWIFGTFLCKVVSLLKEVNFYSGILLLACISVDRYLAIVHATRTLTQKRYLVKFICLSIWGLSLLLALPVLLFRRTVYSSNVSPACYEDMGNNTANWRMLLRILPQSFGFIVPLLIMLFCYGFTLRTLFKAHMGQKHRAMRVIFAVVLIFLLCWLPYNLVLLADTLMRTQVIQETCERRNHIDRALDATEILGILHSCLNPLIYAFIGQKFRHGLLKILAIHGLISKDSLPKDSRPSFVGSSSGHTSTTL

[5] = DRUGMATRIX: Glutamate, NMDA, Phencyclidine radioligand binding (ligand: [3H] TCP); assay type: cell membranes, Rattus norvegicus, Wistar, Cerebral cortex, Membrane; conditions: Not Active = under 50% inhibition at 10 µM
Leukotriene C4 synthase = target: T2, Leukotriene C4 synthase (Cavia porcellus, UniProt A6XA80); experiment: biochemical; assay type: tissue-based, Lung;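 further: enzyme inhibition assay of leukotriene C4 synthase, using LTA4 as the substrate; in other assays of this panel Not Active means under 50% inhibition at 10 µM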
T2 sequence (A6XA80 whole entry): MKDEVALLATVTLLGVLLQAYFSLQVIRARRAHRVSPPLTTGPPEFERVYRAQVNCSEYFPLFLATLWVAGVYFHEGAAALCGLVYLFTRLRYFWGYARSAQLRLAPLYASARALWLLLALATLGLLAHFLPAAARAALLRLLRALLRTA

[6] = target: T3, Muscarinic acetylcholine receptor M5 (Homo sapiens, UniProt P08912); assay type: cell membranes, CHO-K1, Membrane; conditions: cho-k1; further: in other assays of this panel Not Active means under 50% inhibition at 10 µM
T3 sequence (P08912 whole entry): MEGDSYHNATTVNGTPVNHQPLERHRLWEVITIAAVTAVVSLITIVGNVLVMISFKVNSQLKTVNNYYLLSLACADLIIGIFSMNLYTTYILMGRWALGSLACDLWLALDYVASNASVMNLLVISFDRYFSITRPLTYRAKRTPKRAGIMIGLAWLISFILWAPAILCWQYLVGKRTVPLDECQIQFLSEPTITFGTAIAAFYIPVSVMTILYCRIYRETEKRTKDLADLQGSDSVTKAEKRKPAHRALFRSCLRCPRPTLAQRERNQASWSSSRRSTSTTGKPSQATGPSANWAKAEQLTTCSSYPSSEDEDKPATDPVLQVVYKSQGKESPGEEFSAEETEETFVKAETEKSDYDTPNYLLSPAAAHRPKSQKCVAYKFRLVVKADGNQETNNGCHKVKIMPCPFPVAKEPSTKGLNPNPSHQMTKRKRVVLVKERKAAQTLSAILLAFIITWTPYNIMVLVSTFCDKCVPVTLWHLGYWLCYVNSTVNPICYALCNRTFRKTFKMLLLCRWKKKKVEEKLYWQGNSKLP

Nitric oxide synthase 1 = Nitric oxide synthase 1 (Rattus norvegicus, UniProt P29476); assay type: tissue-based, Cerebellum; further: in other assays of this panel Not Active means under 50% inhibition at 10 µM
[7] = target: Platelet-activating factor receptor (Homo sapiens, UniProt P25105); experiment: biochemical; assay type: tissue-based; conditions: platelet; further: in other assays of this panel Not Active means under 50% inhibition at 10 µM
[8] = DRUGMATRIX: Platelet-Derived Growth Factor (PDGF) radioligand binding (ligand: [125I] PDGF); assay type: cell-based; conditions: nih3t3; Not Active = under 50% inhibition at 10 µM
[9] = target: Protein kinase C alpha type (Homo sapiens, UniProt P17252); assay type: cell-based; conditions: sf9
[10] = target: Epidermal growth factor receptor (Homo sapiens, UniProt P00533); experiment: DRUGMATRIX: Protein Tyrosine Kinase, EGF Receptor enzyme inhibition (substrate: Poly(Glu:Tyr)); assay type: cell-based, Insect cells; conditions: insect cells; Not Active = under 50% inhibition at 10 µM
Cytochrome P450 2C9 = Cytochrome P450 2C9 (Homo sapiens, UniProt P11712); conditions: bti-tn-5b1-4; further: in other assays of this panel Not Active means under 50% inhibition at 10 µM
Cytochrome P450 2D6 = Cytochrome P450 2D6 (Homo sapiens, UniProt P10635); conditions: bti-tn-5b1-4; further: in other assays of this panel Not Active means under 50% inhibition at 10 µM
Estrogen receptor beta = Estrogen receptor beta (Homo sapiens, UniProt Q92731); conditions: sf9; further: in other assays of this panel Not Active means under 50% inhibition at 10 µM
Chain of Estrogen receptor beta (Q92731 whole entry): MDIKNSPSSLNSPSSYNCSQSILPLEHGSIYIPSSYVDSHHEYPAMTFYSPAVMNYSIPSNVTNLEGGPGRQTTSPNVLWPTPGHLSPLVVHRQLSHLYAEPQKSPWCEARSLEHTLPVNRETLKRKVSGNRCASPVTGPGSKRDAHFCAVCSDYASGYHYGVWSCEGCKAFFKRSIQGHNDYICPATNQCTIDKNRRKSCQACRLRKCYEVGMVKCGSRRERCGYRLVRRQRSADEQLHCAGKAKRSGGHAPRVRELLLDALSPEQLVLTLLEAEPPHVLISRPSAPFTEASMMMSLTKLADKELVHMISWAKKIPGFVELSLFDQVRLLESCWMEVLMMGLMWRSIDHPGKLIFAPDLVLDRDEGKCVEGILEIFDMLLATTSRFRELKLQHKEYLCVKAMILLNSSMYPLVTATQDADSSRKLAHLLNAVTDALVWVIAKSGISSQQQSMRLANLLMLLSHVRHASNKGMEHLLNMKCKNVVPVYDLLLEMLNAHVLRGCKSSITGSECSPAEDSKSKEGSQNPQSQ

Chain of Epidermal growth factor receptor (P00533 whole entry): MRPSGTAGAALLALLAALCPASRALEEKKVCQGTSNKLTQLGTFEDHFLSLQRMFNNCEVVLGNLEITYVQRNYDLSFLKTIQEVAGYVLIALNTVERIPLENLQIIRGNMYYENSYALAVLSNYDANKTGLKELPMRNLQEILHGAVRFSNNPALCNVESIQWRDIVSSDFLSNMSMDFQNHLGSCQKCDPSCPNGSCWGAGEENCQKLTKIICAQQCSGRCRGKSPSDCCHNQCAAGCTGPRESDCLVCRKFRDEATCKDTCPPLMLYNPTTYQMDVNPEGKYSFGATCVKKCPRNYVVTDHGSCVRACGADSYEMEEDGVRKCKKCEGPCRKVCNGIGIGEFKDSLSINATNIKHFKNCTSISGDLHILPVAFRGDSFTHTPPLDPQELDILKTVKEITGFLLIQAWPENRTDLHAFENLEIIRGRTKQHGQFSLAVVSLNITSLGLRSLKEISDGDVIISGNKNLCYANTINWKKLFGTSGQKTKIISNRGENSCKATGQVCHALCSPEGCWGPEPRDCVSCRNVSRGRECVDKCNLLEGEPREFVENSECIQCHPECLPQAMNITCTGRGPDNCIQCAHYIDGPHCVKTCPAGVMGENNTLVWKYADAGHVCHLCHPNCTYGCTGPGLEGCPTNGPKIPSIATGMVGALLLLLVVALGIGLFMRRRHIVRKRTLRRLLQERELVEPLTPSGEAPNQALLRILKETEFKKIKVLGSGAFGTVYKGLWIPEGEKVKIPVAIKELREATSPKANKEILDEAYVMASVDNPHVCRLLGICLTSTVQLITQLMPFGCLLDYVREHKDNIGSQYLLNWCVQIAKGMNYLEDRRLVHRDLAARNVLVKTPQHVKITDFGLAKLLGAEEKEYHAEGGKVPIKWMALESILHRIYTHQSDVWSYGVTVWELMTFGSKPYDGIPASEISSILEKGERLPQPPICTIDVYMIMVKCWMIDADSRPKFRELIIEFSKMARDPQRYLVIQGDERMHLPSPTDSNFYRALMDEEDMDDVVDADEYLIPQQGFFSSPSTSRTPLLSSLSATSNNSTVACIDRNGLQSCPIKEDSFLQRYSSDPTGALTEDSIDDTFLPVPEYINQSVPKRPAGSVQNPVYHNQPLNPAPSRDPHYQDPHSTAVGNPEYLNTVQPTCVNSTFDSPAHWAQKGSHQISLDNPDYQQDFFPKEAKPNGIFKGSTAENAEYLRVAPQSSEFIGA
Chain of Cytochrome P450 2C9 (P11712 whole entry): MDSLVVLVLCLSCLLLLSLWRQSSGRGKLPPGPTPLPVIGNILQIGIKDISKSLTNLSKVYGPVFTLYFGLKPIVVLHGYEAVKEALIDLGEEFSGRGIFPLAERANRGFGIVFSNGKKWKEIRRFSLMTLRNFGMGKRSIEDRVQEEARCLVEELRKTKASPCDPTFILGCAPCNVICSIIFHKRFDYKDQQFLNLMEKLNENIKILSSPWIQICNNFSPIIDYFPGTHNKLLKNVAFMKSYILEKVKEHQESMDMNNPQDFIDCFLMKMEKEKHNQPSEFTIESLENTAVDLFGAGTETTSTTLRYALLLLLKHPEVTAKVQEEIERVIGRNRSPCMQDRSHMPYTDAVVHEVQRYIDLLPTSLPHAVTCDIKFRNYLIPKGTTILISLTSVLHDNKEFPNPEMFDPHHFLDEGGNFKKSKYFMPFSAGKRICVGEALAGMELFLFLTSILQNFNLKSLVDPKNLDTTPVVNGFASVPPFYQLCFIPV
Chain of Platelet-activating factor receptor (P25105 whole entry): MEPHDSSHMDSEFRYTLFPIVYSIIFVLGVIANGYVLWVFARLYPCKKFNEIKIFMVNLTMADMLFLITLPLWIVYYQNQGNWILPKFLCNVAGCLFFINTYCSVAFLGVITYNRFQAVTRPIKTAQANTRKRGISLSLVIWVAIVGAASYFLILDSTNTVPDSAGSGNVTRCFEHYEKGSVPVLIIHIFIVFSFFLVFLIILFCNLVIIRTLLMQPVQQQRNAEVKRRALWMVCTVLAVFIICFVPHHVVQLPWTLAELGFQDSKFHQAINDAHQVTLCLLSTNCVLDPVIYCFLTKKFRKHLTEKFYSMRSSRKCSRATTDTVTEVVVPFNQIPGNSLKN
Chain of Nitric oxide synthase 1 (P29476 whole entry): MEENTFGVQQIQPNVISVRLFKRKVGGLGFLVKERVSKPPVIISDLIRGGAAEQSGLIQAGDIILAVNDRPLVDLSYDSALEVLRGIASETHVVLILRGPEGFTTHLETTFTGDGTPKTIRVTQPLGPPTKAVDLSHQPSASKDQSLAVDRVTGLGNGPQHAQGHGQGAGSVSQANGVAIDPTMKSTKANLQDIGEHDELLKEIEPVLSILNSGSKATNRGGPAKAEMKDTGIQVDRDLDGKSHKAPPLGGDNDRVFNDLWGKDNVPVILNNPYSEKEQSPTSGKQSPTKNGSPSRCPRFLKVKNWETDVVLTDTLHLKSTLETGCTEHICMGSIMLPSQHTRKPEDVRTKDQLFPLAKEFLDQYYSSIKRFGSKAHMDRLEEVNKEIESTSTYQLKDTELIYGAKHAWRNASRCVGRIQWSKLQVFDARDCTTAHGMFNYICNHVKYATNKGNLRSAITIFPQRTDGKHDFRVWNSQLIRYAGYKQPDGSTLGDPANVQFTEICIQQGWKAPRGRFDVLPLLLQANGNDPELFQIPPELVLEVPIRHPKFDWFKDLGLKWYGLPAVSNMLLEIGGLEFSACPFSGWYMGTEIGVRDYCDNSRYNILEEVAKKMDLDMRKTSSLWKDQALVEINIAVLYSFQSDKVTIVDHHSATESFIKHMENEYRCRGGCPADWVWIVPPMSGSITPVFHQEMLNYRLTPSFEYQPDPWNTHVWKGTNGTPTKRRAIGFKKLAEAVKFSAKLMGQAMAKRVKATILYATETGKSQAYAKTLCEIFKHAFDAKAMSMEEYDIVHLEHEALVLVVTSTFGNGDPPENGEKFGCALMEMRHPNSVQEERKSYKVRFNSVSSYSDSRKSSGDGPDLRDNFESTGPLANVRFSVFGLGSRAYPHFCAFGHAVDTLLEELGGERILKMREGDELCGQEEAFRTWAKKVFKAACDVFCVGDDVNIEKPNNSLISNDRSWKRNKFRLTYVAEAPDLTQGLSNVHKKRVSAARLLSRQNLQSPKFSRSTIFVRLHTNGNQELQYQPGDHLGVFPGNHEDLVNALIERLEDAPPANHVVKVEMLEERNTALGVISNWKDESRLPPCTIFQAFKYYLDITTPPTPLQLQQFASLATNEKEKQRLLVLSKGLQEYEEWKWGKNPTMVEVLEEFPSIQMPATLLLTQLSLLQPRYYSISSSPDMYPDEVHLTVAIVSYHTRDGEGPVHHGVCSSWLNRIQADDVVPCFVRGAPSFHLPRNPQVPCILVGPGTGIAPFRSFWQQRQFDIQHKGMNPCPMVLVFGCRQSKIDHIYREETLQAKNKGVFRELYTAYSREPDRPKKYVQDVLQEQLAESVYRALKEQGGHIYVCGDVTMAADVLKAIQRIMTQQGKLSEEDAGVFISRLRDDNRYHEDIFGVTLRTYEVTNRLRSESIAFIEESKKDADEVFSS
Chain of Sigma non-opioid intracellular receptor 1 (Q99720 whole entry): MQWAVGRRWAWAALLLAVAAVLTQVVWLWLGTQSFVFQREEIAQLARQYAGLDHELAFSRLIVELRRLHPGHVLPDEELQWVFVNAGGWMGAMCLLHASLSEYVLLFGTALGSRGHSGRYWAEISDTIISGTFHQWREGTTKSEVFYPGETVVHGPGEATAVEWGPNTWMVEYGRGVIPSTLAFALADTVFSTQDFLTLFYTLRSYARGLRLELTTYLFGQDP

Row | SMILES | IC50 [1] | IC50 [2] | IC50 [3] | Ki [3] | IC50 [4] | IC50 [5] | Ki [5] | IC50 [6] | IC50 (Nitric oxide synthase 1) | IC50 [7] | IC50 [8] | Ki [8] | IC50 [9] | IC50 [10] | IC50 (Cytochrome P450 2C9) | Ki (Cytochrome P450 2C9) | IC50 (Cytochrome P450 2D6) | Ki (Cytochrome P450 2D6) | IC50 (Estrogen receptor beta) | IC50 (Leukotriene C4 synthase) | also measured
1 | COc1ccc2cc(CC(=O)O)ccc2c1 | Not Active | Not Active | Not Active | Not Active | Not Active | Not Active | Not Active | Not Active | Not Active | Not Active | Not Active | Not Active | Not Active | Not Active | Not Active | Not Active | Not Active | Not Active | Not Active |  | IC50 (Leukotriene C4 synthase; read-out: IC50): 49.7 µM
2 | c1ccc2c(c1)cc1ccc3cccc4ccc2c1c34 | Not Active | Not Active | Not Active | Not Active | Not Active | Not Active | Not Active | Not Active | Not Active | Not Active | Not Active | Not Active | Not Active | Not Active | Not Active | Not Active | Not Active | Not Active | Not Active | Not Active | 
3 | C=C1C(=O)O[C@@H]2C3O[C@]3(C)CC/C=C(\C)CC[C@@H]12 (stereo not given in full) | Not Active | Not Active | Not Active | Not Active | Not Active | Not Active | Not Active | Not Active | Not Active | Not Active | Not Active | Not Active | Not Active | Not Active | Not Active | Not Active | Not Active | Not Active | Not Active | Not Active | 
4 | CC(/C=C1\SC(=S)N(CC(=O)O)C1=O)=C\c1ccccc1 | Not Active | Not Active | Not Active | Not Active | Not Active | Not Active | Not Active | Not Active | Not Active | Not Active | Not Active | Not Active | Not Active | Not Active | Not Active | Not Active | Not Active | Not Active | Not Active | Not Active | 
5 | Cc1[nH]cnc1CN1CCc2c(c3ccccc3n2C)C1=O [ALOSETRON] | Not Active | Not Active | Not Active | Not Active | Not Active | Not Active | Not Active | Not Active | Not Active | Not Active | Not Active | Not Active | Not Active | Not Active | Not Active | Not Active | Not Active | Not Active | Not Active | Not Active | 
6 | NCC[C@H](O)C(=O)N[C@@H]1C[C@H](N)[C@@H](O[C@H]2O[C@H](CN)[C@@H](O)[C@H](O)[C@H]2O)[C@H](O)[C@H]1O[C@H]1O[C@H](CO)[C@@H](O)[C@H](N)[C@H]1O [AMIKACIN] | Not Active | Not Active | Not Active | Not Active | Not Active | Not Active | Not Active | Not Active | Not Active | Not Active | Not Active | Not Active | Not Active | Not Active | Not Active | Not Active | Not Active | Not Active | Not Active | Not Active | 
7 | CC1(C)S[C@@H]2[C@H](NC(=O)[C@H](N)c3ccc(O)cc3)C(=O)N2[C@H]1C(=O)O [AMOXICILLIN] | Not Active | Not Active | Not Active | Not Active | Not Active | Not Active | Not Active | Not Active | Not Active | Not Active | Not Active | Not Active | Not Active | Not Active | Not Active | Not Active | Not Active | Not Active | Not Active | Not Active | 
8 | CCOC(=O)OC(C)OC1=C(C(=O)Nc2ccccn2)N(C)S(=O)(=O)c2ccccc21 (stereo not given) [AMPIROXICAM] | Not Active | Not Active | Not Active | Not Active | Not Active | Not Active | Not Active | Not Active | Not Active | Not Active | Not Active | Not Active | Not Active | Not Active | Not Active | Not Active | Not Active | Not Active | Not Active | Not Active | 
9 | N#C[C@H](O[C@@H]1O[C@H](CO[C@@H]2O[C@H](CO)[C@@H](O)[C@H](O)[C@H]2O)[C@@H](O)[C@H](O)[C@H]1O)c1ccccc1 [AMYGDALIN] | Not Active | Not Active | Not Active | Not Active | Not Active | Not Active | Not Active | Not Active | Not Active | Not Active | Not Active | Not Active | Not Active | Not Active | Not Active | Not Active | Not Active | Not Active | Not Active | Not Active | 
